Measurements taken from patent US20220305012A1, “L[…] TREATING SLEEP ISSUES” (EISAI R&D MANAGEMENT CO., LTD., priority 2019, published 2022).

Key:
[1] = test system: Subjects Having Insomnia Disorder; assay: Example 1: Insomnia Severity Index Total Score (Items 1-7); format: in vivo, human
From the text: As used herein, the term “Insomnia Severity Index”, abbreviated as “ISI”, is an index calculated using a 7-item, self-report questionnaire assessing the nature, severity, and impact of insomnia (see Bastien, C. H., et al. “Validation of the Insomnia Severity Index as an outcome measure for insomnia research.” Sleep Med. 2001; 2(4): 297-307). The questionnaire evaluates: (1) severity of sleep onset; (2) sleep maintenance; (3) early morning awakening problems; (4) sleep dissatisfaction; (5) interference caused by sleep difficulties with daytime functioning; (6) noticeability of sleep problems by others; and (7) distress caused by the sleep difficulties. A 5-point scale is used to rate each item (0=no problem to 4=very severe problem) yielding a total score from 0 to 28. Total ISI score (items (1)-(7)) and daytime functioning (items (4)-(7)) are analyzed separately.
Month 1 Assessment: Standard safety assessments were performed on the subject. A blood sample was collected for determination of plasma concentration of lemborexant and its metabolites, and the ISI, FSS, PGI-Insomnia, EQ-5D-3L, and eC-SSR were completed.
Month 3 Assessment: All assessments conducted at the Month 1 Assessment were repeated.
Month 6 Assessment: All assessments conducted at the Month 1 Assessment were repeated, and subjects completed the WPAI-GH.

[2] = test system: Subjects Having Insomnia Disorder; assay: Example 1: Quality of Sleep rating (scale 1 to 9); format: in vivo, human; conditions: for Quality of Sleep score, Mean (SD): Baseline; for Quality of Sleep score, Treatment difference (vs placebo): change from baseline at Month 6
From the text: In some embodiments, sleep diaries were used to assess sleep parameters reported by subjects (i.e., subjective assessments) including subjective sleep onset latency (sSOL), subjective sleep efficiency (sSE), subjective WASO (sWASO), and subjective total sleep time (sTST). Subjects were instructed to complete the Sleep Diary developed based on the consensus Sleep Diary as described in Carney et al., “The consensus sleep diary: standardizing prospective sleep self-monitoring,” Sleep 2012; 35(2):287-302. In some embodiments, the Sleep Diary was used to assess the subject's global perception of quality of sleep on the previous night with the following question: “How would you rate the quality of your sleep last night?” Subjects rated the quality of their sleep on a scale from 1 to 9, with 1 being extremely poor and 9 being extremely good. In some embodiments, the Sleep Diary was used to assess subjective ratings of morning sleepiness with the following question: “How alert/sleepy do you feel this morning?” Subjects rated their sleepiness/alertness level on a Likert scale from 1 to 9, with 1 being extremely sleepy and 9 being extremely alert.
Treatment period 1 began with the first dose of randomized study medication (placebo, 5 mg of lemborexant, or 10 mg of lemborexant). Subjects completed sleep diaries daily in the morning, within one hour of waketime. The subjects were assessed by a clinician one month, two months, three months, and six months after initiation of Treatment period 1.

Cc1ncc(OC[C@@]2(c3cccc(F)c3)C[C@H]2C(=O)Nc2ccc(F)cn2)c(C)n1 [Lemborexant, (1R,2S)-2-(((2,4-dimethylpyrimidin-5-yl)oxy)methyl)-2-(3-fluorophenyl)-N-(5-fluoropyridin-2-yl)cyclopropanecarboxamide]
insomnia severity index score compared with placebo ([1]; 5 mg and 10 mg, at the equivalent timepoint (Tables 6 and 7: daytime functioning and total score)): greater decrease in insomnia severity index score than subjects treated with placebo | ISI Total Score (Items 1-7), Mean ([1]; 5 mg, Month 1): 12.6 | ISI Total Score (Items 1-7), Median ([1]; 5 mg, Month 1): 12.0 | ISI Total Score (Items 1-7), Mean ([1]; 5 mg, Month 3): 10.8 | ISI Total Score (Items 1-7), Median ([1]; 5 mg, Month 3): 10.0 | ISI Total Score (Items 1-7), Mean ([1]; 5 mg, Month 6): 9.6 | ISI Total Score (Items 1-7), Median ([1]; 5 mg, Month 6): 9.0 | ISI Total Score (Items 1-7), Mean ([1]; 5 mg, Study Baseline): 19.6 | ISI Total Score (Items 1-7), Median ([1]; 5 mg, Study Baseline): 19.0 | ISI Total Score Change from Study Baseline, Mean ([1]; 5 mg, after 1 Month): −7.1 | ISI Total Score Change from Study Baseline, Median ([1]; 5 mg, after 1 Month): −6.0 | ISI Total Score Change from Study Baseline, Mean ([1]; 5 mg, after 3 Months): −8.6 | ISI Total Score Change from Study Baseline, Median ([1]; 5 mg, after 3 Months): −8.0 | ISI Total Score Change from Study Baseline, Mean ([1]; 5 mg, after 6 Months): −9.9 | ISI Total Score Change from Study Baseline, Median ([1]; 5 mg, after 6 Months): −10.0 | ISI Total Score LSM treatment difference: Lemborexant/Placebo ([1]; 5 mg, change from Study Baseline after 1 Month): −1.47 | ISI Total Score LSM treatment difference: Lemborexant/Placebo ([1]; 5 mg, change from Study Baseline after 3 Months): −2.02 | ISI Total Score LSM treatment difference: Lemborexant/Placebo ([1]; 5 mg, change from Study Baseline after 6 Months): −2.10 | ISI Total Score (Items 1-7), Mean ([1]; 10 mg, Month 1): 12.0 | ISI Total Score (Items 1-7), Median ([1]; 10 mg, Month 1): 12.0 | ISI Total Score (Items 1-7), Mean ([1]; 10 mg, Month 3): 10.2 | ISI Total Score (Items 1-7), Median ([1]; 10 mg, Month 3): 10.0 | ISI Total Score (Items 1-7), Mean ([1]; 10 mg, Month 6): 9.4 | ISI Total Score (Items 1-7), Median ([1]; 10 mg, Month 6): 9.0 | ISI Total Score (Items 1-7), Mean ([1]; 10 mg, Study Baseline): 19.0 | ISI Total Score (Items 1-7), Median ([1]; 10 mg, Study Baseline): 19.0 | ISI Total Score Change from Study Baseline, Mean ([1]; 10 mg, after 1 Month): −7.2 | ISI Total Score Change from Study Baseline, Median ([1]; 10 mg, after 1 Month): −6.0 | ISI Total Score Change from Study Baseline, Mean ([1]; 10 mg, after 3 Months): −8.9 | ISI Total Score Change from Study Baseline, Median ([1]; 10 mg, after 3 Months): −9.0 | ISI Total Score Change from Study Baseline, Mean ([1]; 10 mg, after 6 Months): −9.8 | ISI Total Score Change from Study Baseline, Median ([1]; 10 mg, after 6 Months): −9.5 | ISI Total Score LSM treatment difference: Lemborexant/Placebo ([1]; 10 mg, change from Study Baseline after 1 Month): −1.87 | ISI Total Score LSM treatment difference: Lemborexant/Placebo ([1]; 10 mg, change from Study Baseline after 3 Months): −2.57 | ISI Total Score LSM treatment difference: Lemborexant/Placebo ([1]; 10 mg, change from Study Baseline after 6 Months): −2.35 | Quality of Sleep score, Mean (SD) ([2]; 5 mg): 4.0 (1.3) | Quality of Sleep score, Treatment difference (vs placebo) ([2]; 5 mg): 0.28 | Quality of Sleep score, Mean (SD) ([2]; 10 mg): 4.0 (1.4) | Quality of Sleep score, Treatment difference (vs placebo) ([2]; 10 mg): 0.32 | quality of sleep compared with placebo ([2]; at 6 months (Table 8)): significantly improved
